Source: ChEMBL document CHEMBL1201862, “PubChem BioAssay data set” (2004)
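The compound was tested at five concentrations on cells cultured in 96-well plates, with a 48-hour exposure period. GI50: concentration for 50% inhibition of growth.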 The source made the active and inactive calls. Cut-off read from the data, not from the text of the source: active = GI50 up to about 1.1 µM and inactive = higher.

Experiments:
Assay in all cases: NCI-60 cell line screen, 48 h
UO-31 = tested on: UO-31
DLD-1 = tested on: DLD-1
SK-MEL-5 = tested on: SK-MEL-5
OVCAR-3 = tested on: OVCAR-3
OVCAR-8 = tested on: OVCAR-8
HL-60 = tested on: HL-60
MOLT-4 = tested on: MOLT-4
TK-10 = tested on: TK-10
HCC 2998 = tested on: HCC 2998
HCT-116 = tested on: HCT-116
M19-MEL = tested on: M19-MEL
A549 = tested on: A549
SF-268 = tested on: SF-268
UACC-62 = tested on: UACC-62
ACHN = tested on: ACHN
HOP-92 = tested on: HOP-92
DMS-273 = tested on: DMS-273
HCT-15 = tested on: HCT-15
Malme-3M = tested on: Malme-3M
HT-29 = tested on: HT-29
NCI-H226 = tested on: NCI-H226
HOP-62 = tested on: HOP-62
EKVX = tested on: EKVX
OVCAR-5 = tested on: OVCAR-5
NCI-H23 = tested on: NCI-H23
RPMI-8226 = tested on: RPMI-8226
SK-OV-3 = tested on: SK-OV-3
NCI-H460 = tested on: NCI-H460
SF-539 = tested on: SF-539
SNB-19 = tested on: SNB-19
XF498 = tested on: XF498
IGROV-1 = tested on: IGROV-1
COLO 205 = tested on: COLO 205
K562 = tested on: K562
SN12C = tested on: SN12C
DMS-114 = tested on: DMS-114
OVCAR-4 = tested on: OVCAR-4
SNB-78 = tested on: SNB-78
SW-620 = tested on: SW-620
RXF 631 = tested on: RXF 631
A498 = tested on: A498
U-251 = tested on: U-251
SK-MEL-28 = tested on: SK-MEL-28
LXFL 529 = tested on: LXFL 529
786-0 = tested on: 786-0
LOX IMVI = tested on: LOX IMVI
M14 = tested on: M14
RXF 393 = tested on: RXF 393
SK-MEL-2 = tested on: SK-MEL-2
KM12 = tested on: KM12
CCRF-CEM = tested on: CCRF-CEM
SNB-75 = tested on: SNB-75
SF-295 = tested on: SF-295
KM-20L2 = tested on: KM-20L2
UACC-257 = tested on: UACC-257
NCI-H522 = tested on: NCI-H522
CAKI-1 = tested on: CAKI-1

Q: For `C[C@]12Cc3conc3C(O)=C1CC[C@@H]1C2CC[C@@]2(C)C1CC[C@]2(C)O` (some centres undefined), which GI50 (UO-31) is on record?
A: 16 µM (inactive)

Q: What about the GI50 (DLD-1) of the same compound?
A: 16.5 µM (inactive)

Q: What about the GI50 (SK-MEL-5) of the same compound?
A: 13.6 µM (inactive)

Q: And the GI50 (OVCAR-3)?
A: 18.4 µM (inactive)

Q: What about the GI50 (OVCAR-8) of the same compound?
A: 23.4 µM (inactive)

Q: What about the GI50 (HL-60) of the same compound?
A: 2.09 µM (inactive)

Q: What about the GI50 (MOLT-4) of the same compound?
A: 15.2 µM (inactive)

Q: And the GI50 (TK-10)?
A: 24 µM (inactive)

Q: What about the GI50 (HCC 2998) of the same compound?
A: 21.1 µM (inactive)

Q: What about the GI50 (HCT-116) of the same compound?
A: 16.3 µM (inactive)

Q: And the GI50 (M19-MEL)?
A: 15.1 µM (inactive)

Q: And the GI50 (A549)?
A: 28.1 µM (inactive)

Q: And the GI50 (SF-268)?
A: 28.8 µM (inactive)

Q: And the GI50 (UACC-62)?
A: 10.4 µM (inactive)

Q: And the GI50 (ACHN)?
A: 26.5 µM (inactive)

Q: What about the GI50 (HOP-92) of the same compound?
A: 32.4 µM (inactive)

Q: And the GI50 (DMS-273)?
A: 9.04 µM (inactive)

Q: And the GI50 (HCT-15)?
A: 10.7 µM

Q: What about the GI50 (Malme-3M) of the same compound?
A: 18.5 µM (inactive)

Q: And the GI50 (HT-29)?
A: 20.6 µM (inactive)

Q: And the GI50 (NCI-H226)?
A: 14.8 µM (inactive)

Q: And the GI50 (HOP-62)?
A: 22.9 µM (inactive)

Q: And the GI50 (EKVX)?
A: 21.5 µM (inactive)

Q: What about the GI50 (OVCAR-5) of the same compound?
A: 29.2 µM (inactive)

Q: And the GI50 (NCI-H23)?
A: 19.5 µM (inactive)

Q: And the GI50 (RPMI-8226)?
A: 2.87 µM (inactive)

Q: What about the GI50 (SK-OV-3) of the same compound?
A: 24.3 µM (inactive)

Q: And the GI50 (NCI-H460)?
A: 13.6 µM (inactive)

Q: What about the GI50 (SF-539) of the same compound?
A: 21.8 µM (inactive)

Q: What about the GI50 (SNB-19) of the same compound?
A: 25.3 µM (inactive)

Q: What about the GI50 (XF498) of the same compound?
A: 18.2 µM (inactive)

Q: What about the GI50 (IGROV-1) of the same compound?
A: 19 µM (inactive)

Q: What about the GI50 (COLO 205) of the same compound?
A: 20.4 µM (inactive)

Q: What about the GI50 (K562) of the same compound?
A: 3.97 µM (inactive)

Q: And the GI50 (SN12C)?
A: 33 µM (inactive)

Q: And the GI50 (DMS-114)?
A: 16.4 µM (inactive)

Q: What about the GI50 (OVCAR-4) of the same compound?
A: 17.2 µM (inactive)

Q: What about the GI50 (SNB-78) of the same compound?
A: 22.4 µM (inactive)

Q: And the GI50 (SW-620)?
A: 21.1 µM (inactive)

Q: What about the GI50 (RXF 631) of the same compound?
A: 21.6 µM (inactive)

Q: What about the GI50 (A498) of the same compound?
A: 16.1 µM (inactive)

Q: And the GI50 (U-251)?
A: 19.7 µM (inactive)

Q: And the GI50 (SK-MEL-28)?
A: 19.9 µM (inactive)

Q: What about the GI50 (LXFL 529) of the same compound?
A: 15.1 µM (inactive)

Q: What about the GI50 (786-0) of the same compound?
A: 22.7 µM (inactive)

Q: What about the GI50 (LOX IMVI) of the same compound?
A: 1.79 µM (inactive)

Q: What about the GI50 (M14) of the same compound?
A: 16 µM (inactive)

Q: What about the GI50 (RXF 393) of the same compound?
A: 18.9 µM (inactive)

Q: What about the GI50 (SK-MEL-2) of the same compound?
A: 14.3 µM (inactive)

Q: What about the GI50 (KM12) of the same compound?
A: 13.7 µM (inactive)

Q: And the GI50 (CCRF-CEM)?
A: 8.97 µM (inactive)

Q: And the GI50 (SNB-75)?
A: 10.2 µM (inactive)

Q: What about the GI50 (SF-295) of the same compound?
A: 19.1 µM (inactive)

Q: What about the GI50 (KM-20L2) of the same compound?
A: 13.5 µM (inactive)

Q: What about the GI50 (UACC-257) of the same compound?
A: 22.4 µM (inactive)

Q: What does the source list for `COc1ccc(C(=O)O[C@H]2[C@@H]3C=CO[C@@H](OC4OC(CO)C(O)C(O)C4O)[C@@H]3[C@@]3(CO)O[C@@H]23)cc1O` (some centres undefined)?
A: GI50 (UO-31): > 100 µM (inactive); GI50 (DLD-1): > 100 µM (inactive); GI50 (SK-MEL-5): > 100 µM (inactive); GI50 (OVCAR-3): > 100 µM (inactive); GI50 (OVCAR-8): > 100 µM (inactive); GI50 (HL-60): > 100 µM (inactive); GI50 (MOLT-4): > 100 µM (inactive); GI50 (TK-10): > 100 µM (inactive); GI50 (HCC 2998): > 100 µM (inactive); GI50 (M19-MEL): > 100 µM (inactive); GI50 (A549): > 100 µM (inactive); GI50 (SF-268): > 100 µM (inactive); GI50 (UACC-62): > 100 µM (inactive); GI50 (ACHN): > 100 µM (inactive); GI50 (HOP-92): > 100 µM (inactive); GI50 (DMS-273): > 100 µM (inactive); GI50 (Malme-3M): > 100 µM (inactive); GI50 (HT-29): > 100 µM (inactive); GI50 (HOP-62): > 100 µM (inactive); GI50 (EKVX): > 100 µM (inactive); GI50 (OVCAR-5): > 100 µM (inactive); GI50 (NCI-H23): > 100 µM (inactive); GI50 (RPMI-8226): > 100 µM (inactive); GI50 (SK-OV-3): > 100 µM (inactive); GI50 (NCI-H460): > 100 µM (inactive); GI50 (SF-539): > 100 µM (inactive); GI50 (SNB-19): > 100 µM (inactive); GI50 (NCI-H522): > 100 µM (inactive); GI50 (XF498): > 100 µM (inactive); GI50 (IGROV-1): > 100 µM (inactive); GI50 (COLO 205): > 100 µM (inactive); GI50 (K562): > 100 µM (inactive); GI50 (SN12C): > 100 µM (inactive); GI50 (DMS-114): > 100 µM (inactive); GI50 (CAKI-1): > 100 µM (inactive); GI50 (OVCAR-4): > 100 µM (inactive); GI50 (SNB-78): > 100 µM (inactive); GI50 (SW-620): > 100 µM (inactive); GI50 (RXF 631): > 100 µM (inactive); GI50 (A498): > 100 µM (inactive); GI50 (U-251): > 100 µM (inactive); GI50 (SK-MEL-28): > 100 µM (inactive); GI50 (LXFL 529): > 100 µM (inactive); GI50 (786-0): > 100 µM (inactive); GI50 (LOX IMVI): > 100 µM (inactive); GI50 (M14): > 100 µM (inactive); GI50 (RXF 393): > 100 µM (inactive); GI50 (SK-MEL-2): > 100 µM (inactive); GI50 (KM12): > 100 µM (inactive); GI50 (CCRF-CEM): > 100 µM (inactive); GI50 (SNB-75): > 100 µM (inactive); GI50 (SF-295): > 100 µM (inactive); GI50 (KM-20L2): > 100 µM (inactive); GI50 (UACC-257): > 100 µM (inactive)
